According to patent publication US6548540B2, “Method of treating cancer using dithiocarbamate derivatives” (Charlotte-Mecklenburg Hospital Authority, priority 1998, dated 2003):
“Also recorded” adds a separate entry of the source.

Key:
Assay type in all cases: cell-based, human
[1] = test system: transcription factor binding to CRE (cyclic AMP response element); experiment: EMSA of nuclear protein from treated M1619 cells, binding to CRE
Description: This dose was chosen to approximate the steady state plasma and tissue concentrations of drug in human subjects on chronic therapy with this agent. Disulfiram was solubilized in dimethylsulfoxide (DMSO) so that the final concentration of DMSO was less than 0.3-0.5%. Equal volumes of DMSO were added to control experiments. Nuclear protein was harvested and electrophoretic mobility gel shift assays were performed using DNA consensus binding sequence for the cyclic-AMP responsive element (CRE) as outlined below. […] Nuclear protein was isolated and DNA binding reactions were performed as previously described in detail (See, […], et al., “Dehydroepiandrosterone and analogs inhibit DNA binding of AP-1 and airway smooth muscle proliferation,” J. Pharmacol. Exper. Ther. 285:[…] (1998); T. Kennedy, et al., “Copper-dependent inflammation and nuclear factor-κB activation by particulate air pollution,” Am. J. Respir. Cell Mol. Biol. 19:366-378 (1998)). Monolayers were washed twice in cold DPBS and equilibrated 10 minutes on ice with 0.7 ml cold cytoplasmic extraction buffer, CEB (10 mM Tris, pH 7.9, 60 mM KCl, 1 mM EDTA, 1 mM DTT) with protease inhibitors, PI (1 mM Pefabloc, 50 μg/ml antipain, 1 μg/ml leupeptin, 1 μg/ml pepstatin, 40 μg/ml bestatin, 3 μg/ml E-64 and 100 μg/ml chymostatin). The detergent Nonidet P-40 (NP-40) was added to a final concentration of 0.1% and cells were dislodged with a cell scraper. Nuclei were pelleted by centrifugation and washed with CEB/PI. […] DNA-protein binding reactions were performed with 2 μg of nuclear protein (as determined by the Pierce method) and 30-80,000 cpm of ^32P-end-labelled double-stranded DNA probe in 10 mM Tris-HCl, pH 7.5, 50 mM NaCl, 0.5 mM EDTA, 0.5 mM DTT (except where indicated), 1 mM MgCl2, 50 μg/ml poly dI-dC, and 4% glycerol. […] Gels were dried and analyzed by autoradiography at -80° C. using an image intensifier screen. […]

[2] = test system: NF-κB; experiment: EMSA of treated cells, NF-κB DNA binding; details: disulfiram plus copper; 12 hours; data not shown
Description: Nuclear protein was isolated and DNA binding reactions were performed as previously described in detail (See, […], et al., “Dehydroepiandrosterone and analogs inhibit DNA binding of AP-1 and airway smooth muscle proliferation,” J. Pharmacol. Exper. Ther. 285:[…] (1998); T. Kennedy, et al., “Copper-dependent inflammation and nuclear factor-κB activation by particulate air pollution,” Am. J. Respir. Cell Mol. Biol. 19:366-378 (1998)). Monolayers were washed twice in cold DPBS and equilibrated 10 minutes on ice with 0.7 ml cold cytoplasmic extraction buffer, CEB (10 mM Tris, pH 7.9, 60 mM KCl, 1 mM EDTA, 1 mM DTT) with protease inhibitors, PI (1 mM Pefabloc, 50 μg/ml antipain, 1 μg/ml leupeptin, 1 μg/ml pepstatin, 40 μg/ml bestatin, 3 μg/ml E-64 and 100 μg/ml chymostatin). The detergent Nonidet P-40 (NP-40) was added to a final concentration of 0.1% and cells were dislodged with a cell scraper. Nuclei were pelleted by centrifugation and washed with CEB/PI. […] Competition experiments were performed with 10×unlabeled wild-type oligonucleotide sequences for CRE or […] and 3'-[NT]5'), added before labeled probe. Supershift experiments were performed by incubating the binding reaction with 1 μg of supershifting antibody prior to electrophoresis. […] Gels were dried and analyzed by autoradiography at -80° C. using an image intensifier screen. […]

[3] = test system: M1619 cells; experiment: Intracellular reactive oxygen species, dichlorofluorescin probe
Description: Potential redox effects of disulfiram were studied in three sets of experiments. The importance of cellular glutathione (GSH) in mediating or modulating thiocarbamate toxicity was studied by measuring levels of intracellular GSH after treatment with disulfiram. […] Also, to assess whether a nonspecific antioxidant effect of disulfiram or PDTC might account for cellular growth inhibition, we studied the effect of the potent lipophilic antioxidant probucol (1.0 to 1,000 μM) on proliferation of malignant cell lines. […] A. Royall, et al., “Evaluation of 2′,7′-dichlorofluorescin and dihydrorhodamine 123 as fluorescent probes for intracellular H2O2 in cultured endothelial cells,” Archiv. Biochem. Biophys. 302:348-355 (1993)). […] Cells were plated in 24 well plastic plates at 50,000 cells per well and grown to confluence. Media was aspirated from wells and replaced with 100 μl medium containing 10 μM DCF-DA, and plates were incubated at 37° C. for 30 minutes. The DCF-DA containing media was aspirated, cells were washed twice with media alone and 100 μl fresh media was added to wells. […] The relative concentration of dichlorofluroescein was measured immediately by monitoring fluorescence at 37° C. using an excitation wavelength of 485 nm and emission wavelength of 535 nm.

CCN(CC)C(=S)SSC(=S)N(CC)CC [Disulfiram, tetraethylthiuram disulfide]
DNA-binding to CRE ([1]; 5 μM disulfiram alone, treated cells): slightly reduced
transcription factor binding to CRE ([1]; 5 μM disulfiram and 1.6 μM cupric sulfate, cells treated 6, 12 or 24 hour): substantially interrupts; also recorded: eliminated
DNA binding of the upper ATF-2 containing complex II (densitometry) ([1]; disulfiram 5 μM plus CuSO4 1.6 μM, 8 hours, n=4): by half
DNA binding of NF-κB [2]: inhibited
generation of reactive oxygen species (dichlorofluorescein fluorescence vs baseline) ([3]; 1.25 μM disulfiram and 0.2 to 1.6 μM CuSO4): not increased
generation of reactive oxygen species (dichlorofluorescein fluorescence vs baseline) ([3]; disulfiram 0.625 to 5 μM): not increased
